Data as given in patent publication US4515951A, “Preparation of 5,6,7,7a-tetrahydro-4H-thieno[3,2-c]pyridin-2-one compounds” (Sanofi, priority 1980, dated 1985).

Columns and labels:
[1] = system: platelet aggregation induced by ADP; assay: kinetic study of platelet aggregation induced by ADP (Born's nephelometric method, Bryston aggregometer), intraperitoneal; assay type: in vivo; details: rats
Description: A further experiment was carried out, relating to the kinetic study of the compounds of the present invention.
The blood sample is taken 10 minutes and 60 minutes after this administration and is centrifuged to obtain a plasma enriched in platelets.
The platelet aggregation in the plasma, induced by ADP is measured in a Bryston aggregometer, using Born's nephelometric method.

[2] = system: platelet aggregation by ADP; assay: inhibiting action on platelet aggregation by ADP (ADP TEST), plasma of orally treated rats; assay type: in vivo, Wistar rats; details: Rattus norvegicus, po, 3 h, read-out: Percentage inhibition of platelet aggregation (ADP test)
Description: (§1) A sample of blood is taken from the jugular vein of Wistar rats, which have previously been treated with the compound to be tested. From this blood, which is citrate-treated and centrifuged, there is reconstituted a plasma containing 600,000±20,000 platelets per mm^3, which is employed in all the aggregation measurements.
(§2) 0.4 ml. of plasma is treated in a siliconised tube provided with a bar magnet which is also siliconised. The tube is introduced into an aggregometer connected to an apparatus with which variations in optical density can be recorded. When the light transmission has reached a stable value, 0.5 ml. of a solution containing […] of ADP (adenosine diphosphate)is introduced into the tube.
(§3) Platelet aggregation then causes an increase in light transmission, followed by a reduction in light transmission due to the subsequent disaggregation stage.
(§4) The maximum variation in optical density thus determined relative to that of a plasma free of platelets characterises the intensity of aggregation.
(§5) The measurements are carried out during the 2 hours which follow the taking of the blood sample, this sample being taken 3 hours after treatment with the derivative to be tested.
(§6) Groups of 20 rats were used. Each group received a single dose of the compound to be tested, administered orally, the same compound being administered at different doses ranging from 5 mg./kg. to 100 mg./kg.
(§7) The results obtained are given in the following Tables II and III, which show the percentage inhibition of platelet aggregation obtained relative to the control experiment, 3 hours after treatment with the compound to be tested.

[3] = system: experimental thrombosis; assay: anti-thrombosis activity, experimental thrombosis caused by extracorporal circulation (Umetsu and Sonoi); assay type: in vivo, rats; details: control (5% gum arabic) 30.41
Description: This activity was studied by the experimental thrombosis method caused by extracorporal circulation, described by Umetsu and Sonoi (Thrombos. Haemost., 39, […]).
The left jugular vein and the right external carotid are exposed in rats anaesthetised by an intraperitoneal injection of pentobarbital. A shunt is provided which consists of a central catheter and two lateral catheters. A natural white silk thread is introduced into the central part and the circulation is restarted for 20 minutes. After stopping the circulation by clamping, the thread is gently withdrawn and weighed immediately.
Treatment was carried out for 48 hours, 24 hours and 2 hours before the start of the blood circulation in shunt.
The test compounds were administered orally to different groups of animals in the form of a suspension in 10 ml. of 5% gum arabic/kg., the doses used being 12.5 mg./kg., 25 mg./kg., 50 mg./kg., 100 mg./kg. and 200 mg./kg.

[4] = system: platelet aggregation by collagen; assay: inhibiting action on platelet aggregation by collagen (COLLAGEN TEST), plasma of orally treated rats; assay type: in vivo, Wistar rats; details: Rattus norvegicus, po, 3 h, read-out: Percentage inhibition of platelet aggregation (collagen test)
Description: as §1, §2, §3, §4, §5
The ADP solution is replaced by a solution of collagen (extracted from cattle tendons).
as §6, §7

[5] = in vivo; details: mouse, iv
Text: This study was concerned with the acute, chronic, sub-chronic and delayed toxicities.

**Q.** For `O=C1C=C2CN(Cc3ccccc3Cl)CCC2S1` (centres unmarked) [Derivative 1, 5-(o-Chlorobenzyl)-5,6,7,7a-tetrahydro-4H-thieno-[3,2-c]pyridin-2-one], which “percentage inhibition as a function of time (platelet aggregation, ADP)” value ([1]; 10 minutes after 100 mg/kg intraperitoneal in propylene glycol) is on record?
**A.** 42%

**Q.** And the “percentage inhibition as a function of time (platelet aggregation, ADP)” value ([1]; 60 minutes after 100 mg/kg intraperitoneal in propylene glycol)?
**A.** 97%

**Q.** What about the inhibition at 5 mg/kg [2] of the same compound?
**A.** 51%

**Q.** And the inhibition at 12.5 mg/kg [2]?
**A.** 83.6%

**Q.** What about the inhibition at 25 mg/kg [2] of the same compound?
**A.** 83.7%

**Q.** What about the inhibition at 50 mg/kg [2] of the same compound?
**A.** 84%

**Q.** And the inhibition at 100 mg/kg [2]?
**A.** 84.1%

**Q.** What about the “Average weight of the thrombi” value ([3]; 12.5 mg/kg oral, 48, 24 and 2 hours before) of the same compound?
**A.** 27.45 mg

**Q.** And the “Average weight of the thrombi” value ([3]; 25 mg/kg oral, 48, 24 and 2 hours before)?
**A.** 12.21 mg

**Q.** What about the “Average weight of the thrombi” value ([3]; 50 mg/kg oral, 48, 24 and 2 hours before) of the same compound?
**A.** 6.01 mg

**Q.** What about the “Average weight of the thrombi” value ([3]; 100 mg/kg oral, 48, 24 and 2 hours before) of the same compound?
**A.** 4.76 mg

**Q.** And the inhibition at 5 mg/kg [4]?
**A.** 16.8%

**Q.** What about the inhibition at 12.5 mg/kg [4] of the same compound?
**A.** 46.8%

**Q.** What about the inhibition at 25 mg/kg [4] of the same compound?
**A.** 86.7%

**Q.** What about the inhibition at 50 mg/kg [4] of the same compound?
**A.** 89.6%

**Q.** What about the inhibition at 100 mg/kg [4] of the same compound?
**A.** 89.8%

**Q.** What about the LD50 at 24 h [5] of the same compound?
**A.** 113 mg/kg
